Patent US20250108038A1 (priority 2023, published 2025)
Entries after “also recorded” stand apart in the source; their conditions may differ. Like-named read-outs stand apart in the source and are kept apart here.

Experiments:
[1] = target: T1, OAT1 (Homo sapiens, UniProt Q4U2R8); assay: Uptake transporter inhibition assay, OAT1 (tenofovir)
T1 sequence (Q4U2R8 1-563): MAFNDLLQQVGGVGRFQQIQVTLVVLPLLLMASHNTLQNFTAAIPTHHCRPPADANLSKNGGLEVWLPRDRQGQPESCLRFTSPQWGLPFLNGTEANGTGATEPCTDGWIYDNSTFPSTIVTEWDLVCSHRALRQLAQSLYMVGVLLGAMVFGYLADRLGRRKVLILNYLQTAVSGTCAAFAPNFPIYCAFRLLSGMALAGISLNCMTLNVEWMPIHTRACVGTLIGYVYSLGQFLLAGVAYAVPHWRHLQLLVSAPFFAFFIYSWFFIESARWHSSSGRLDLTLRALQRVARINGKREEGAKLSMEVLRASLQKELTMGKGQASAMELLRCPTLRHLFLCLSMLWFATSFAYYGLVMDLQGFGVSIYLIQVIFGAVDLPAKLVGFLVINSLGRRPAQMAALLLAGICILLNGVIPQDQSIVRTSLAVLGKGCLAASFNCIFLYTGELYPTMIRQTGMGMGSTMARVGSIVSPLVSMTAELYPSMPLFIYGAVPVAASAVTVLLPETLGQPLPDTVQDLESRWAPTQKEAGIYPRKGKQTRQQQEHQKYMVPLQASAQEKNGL
Procedure: (§1) Uptake experiments were performed using HEK293 cells stably expressing the respective uptake transporters. The assays were conducted according to the actual SOLVO uptake transporter assay protocols (PR-ASY-UPT-General Protocol for Uptake Transporter Inhibition Assays).
(§2) Cells were cultured at 37° C. in a humidified atmosphere containing 5% CO2 and were plated onto standard 96-well tissue culture plates.
(§3) Before the experiment, the medium was removed, and the cells were washed twice with 100 μL of pre-warmed (37° C.) assay buffer listed in Table 15. The cells were pre-incubated at 37° C. for 30 minutes in assay buffer containing the test article at appropriate concentrations (Table 16), appropriate solvents for solvent controls and the reference inhibitor for reference inhibitor wells. After the pre-incubation step solutions were removed. Uptake experiments were performed at 37° C. in 50 μL of assay buffer containing the probe substrate and the test article or solvent and controls.
(§4) After the experiment, cells were washed twice with 100 μL of appropriate cold buffer and lysed with 150 μL scintillation cocktail. Radiolabeled probe substrate transport was determined by liquid scintillation counting.
(§5) Uptake of the probe substrate in control cells provided background activity values for all data points.

[2] = target: T2, OCT1 (Homo sapiens, UniProt O15245); assay: Uptake transporter inhibition assay, OCT1 (sumatriptan)
T2 sequence (O15245 1-554): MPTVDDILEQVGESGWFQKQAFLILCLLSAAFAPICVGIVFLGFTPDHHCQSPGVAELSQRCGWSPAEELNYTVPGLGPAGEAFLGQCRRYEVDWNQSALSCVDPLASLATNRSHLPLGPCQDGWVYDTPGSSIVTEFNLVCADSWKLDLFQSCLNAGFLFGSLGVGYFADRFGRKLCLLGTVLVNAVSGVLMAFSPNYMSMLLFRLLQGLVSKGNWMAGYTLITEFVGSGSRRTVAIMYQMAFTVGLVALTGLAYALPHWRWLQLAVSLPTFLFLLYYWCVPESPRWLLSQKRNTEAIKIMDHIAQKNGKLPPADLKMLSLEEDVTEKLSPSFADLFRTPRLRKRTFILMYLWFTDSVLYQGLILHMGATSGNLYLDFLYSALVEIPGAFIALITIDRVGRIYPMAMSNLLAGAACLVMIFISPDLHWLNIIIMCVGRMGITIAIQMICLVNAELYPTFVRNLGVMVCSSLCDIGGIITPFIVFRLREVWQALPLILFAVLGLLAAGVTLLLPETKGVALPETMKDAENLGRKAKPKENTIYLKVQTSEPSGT
Procedure: as §1, §2, §3, §4, §5

[3] = 0.04 μM nominal, sumatriptan, IC50 determination, Table 122
[4] = 0.12 μM nominal, sumatriptan, IC50 determination, Table 122
[5] = 1.11 μM nominal, sumatriptan, IC50 determination, Table 122
[6] = 3.00 μM nominal, sumatriptan, Table 121
[7] = 10.00 μM nominal, sumatriptan, IC50 determination, Table 122
[8] = 30.00 μM nominal, sumatriptan, IC50 determination, Table 122
[9] = 30.00 μM nominal, sumatriptan, Table 121

## OC1(c2ccc(Cl)cc2)c2ccccc2C2=NCCN21 (centres unmarked) [Compound A, 5-(4-chlorophenyl)-2,3-dihydroimidazo[1,2-b]isoindol-5-ol, reference compound]
HBSS (pH 7.4) for OAT1, OAT3, OATP1B1, OATP1B3, OCT1, OCT2 uptake inhibition assay, 37° C., 6.25 μM nominal
  Microscopy results (solubility): Soluble
HBSS (pH 7.4) for OAT1, OAT3, OATP1B1, OATP1B3, OCT1, OCT2 uptake inhibition assay, 37° C., 30.00 μM nominal
  Microscopy results (solubility): Soluble
HBSS (pH 7.4) for OAT1, OAT3, OATP1B1, OATP1B3, OCT1, OCT2 uptake inhibition assay, 37° C., 40.00 μM nominal
  Microscopy results (solubility): Insoluble
HBSS (pH 7.4) for OAT1, OAT3, OATP1B1, OATP1B3, OCT1, OCT2 uptake inhibition assay, 37° C., 50.00 μM nominal
  Microscopy results (solubility): Insoluble
HBSS (pH 7.4) for OAT1, OAT3, OATP1B1, OATP1B3, OCT1, OCT2 uptake inhibition assay, 37° C., 100.00 μM nominal
  Microscopy results (solubility): Insoluble
KH (pH 8.0) for MATE1, MATE2-K uptake inhibition assay, 37° C., 6.25 μM nominal
  Microscopy results (solubility): Soluble
KH (pH 8.0) for MATE1, MATE2-K uptake inhibition assay, 37° C., 30.00 μM nominal
  Microscopy results (solubility): Soluble
KH (pH 8.0) for MATE1, MATE2-K uptake inhibition assay, 37° C., 40.00 μM nominal
  Microscopy results (solubility): Insoluble
KH (pH 8.0) for MATE1, MATE2-K uptake inhibition assay, 37° C., 50.00 μM nominal
  Microscopy results (solubility): Insoluble
KH (pH 8.0) for MATE1, MATE2-K uptake inhibition assay, 37° C., 100.00 μM nominal
  Microscopy results (solubility): Insoluble
Transport buffer (pH 7.4) for BSEP VT inhibition assay, 37° C., 6.25 μM nominal
  Microscopy results (solubility): Soluble
Transport buffer (pH 7.4) for BSEP VT inhibition assay, 37° C., 30.00 μM nominal
  Microscopy results (solubility): Soluble
Transport buffer (pH 7.4) for BSEP VT inhibition assay, 37° C., 40.00 μM nominal
  Microscopy results (solubility): Insoluble
Transport buffer (pH 7.4) for BSEP VT inhibition assay, 37° C., 50.00 μM nominal
  Microscopy results (solubility): Insoluble
Transport buffer (pH 7.4) for BSEP VT inhibition assay, 37° C., 100.00 μM nominal
  Microscopy results (solubility): Insoluble
Transport buffer with sucrose (pH 7.4) for BCRP and MDR1 VT inhibition assay, 32° C., 6.25 μM nominal
  Microscopy results (solubility): Soluble
Transport buffer with sucrose (pH 7.4) for BCRP and MDR1 VT inhibition assay, 32° C., 50.00 μM nominal
  Microscopy results (solubility): Soluble
Transport buffer with sucrose (pH 7.4) for BCRP and MDR1 VT inhibition assay, 32° C., 60.00 μM nominal
  Microscopy results (solubility): Insoluble
Transport buffer with sucrose (pH 7.4) for BCRP and MDR1 VT inhibition assay, 32° C., 70.00 μM nominal
  Microscopy results (solubility): Insoluble
Transport buffer with sucrose (pH 7.4) for BCRP and MDR1 VT inhibition assay, 32° C., 80.00 μM nominal
  Microscopy results (solubility): Insoluble
Transport buffer with sucrose (pH 7.4) for BCRP and MDR1 VT inhibition assay, 32° C., 90.00 μM nominal
  Microscopy results (solubility): Insoluble
Transport buffer with sucrose (pH 7.4) for BCRP and MDR1 VT inhibition assay, 32° C., 100.00 μM nominal
  Microscopy results (solubility): Insoluble
[1]; 3.00 μM nominal
  Relative transporter specific accumulation: 99.68 ± 2.39 % of control
  Transporter specific accumulation: 2,392.67 ± 13.09 cpm
[1]; 30.00 μM nominal
  Relative transporter specific accumulation: 88.39 ± 4.23 % of control
  Transporter specific accumulation: 2,121.67 ± 88.79 cpm
[1]; OAT1, HEK293 cells, tenofovir (5 μM), NIO: no inhibition observed
  Maximum % inhibition: NIO
[1]; human
  inhibition at 3 μM: 0%
  inhibition at 30 μM: 12%
[1]; up to 100 μM (Compound A up to 30 μM)
  maximum inhibition of OAT1-mediated tenofovir accumulation: did not inhibit; also recorded: not an in vitro inhibitor
[2]
  IC50: 2310 nM
[2]; [3]
  Relative transporter specific accumulation: 91.36 ± 5.98 % of control
  Transporter specific accumulation: 881.00 ± 27.83 cpm
[2]; [4]
  Relative transporter specific accumulation: 73.95 ± 5.69 % of control
  Transporter specific accumulation: 713.17 ± 36.62 cpm
[2]; [5]
  Relative transporter specific accumulation: 65.12 ± 6.84 % of control
  Transporter specific accumulation: 628.00 ± 55.27 cpm
[2]; [6]
  Relative transporter specific accumulation: 51.27 ± 1.85 % of control
  Transporter specific accumulation: 484.33 ± 16.61 cpm
[2]; [7]
  Relative transporter specific accumulation: 25.23 ± 3.64 % of control
  Transporter specific accumulation: 243.33 ± 32.16 cpm
[2]; [8]
  Relative transporter specific accumulation: 14.03 ± 4.75 % of control
  Transporter specific accumulation: 135.33 ± 45.14 cpm
[2]; [9]
  Relative transporter specific accumulation: 15.00 ± 1.09 % of control
  Transporter specific accumulation: 141.67 ± 10.22 cpm
[2]; human, Maximum % inhibition, OCT1, HEK293 cells, sumatriptan (10 μM), NIO: no inhibition observed
  inhibition at 10 µM: 86%
[2]; human, Relative Inhibition, 0.04 μM nominal, sumatriptan, IC50 determination, Table 122
  inhibition at 0.04 μM: 9%
[2]; human, Relative Inhibition, 0.12 μM nominal, sumatriptan, IC50 determination, Table 122
  inhibition at 0.12 μM: 26%
[2]; human, Relative Inhibition, 1.11 μM nominal, sumatriptan, IC50 determination, Table 122
  inhibition at 1.11 μM: 35%
[2]; human, Relative Inhibition, 10.00 μM nominal, sumatriptan, IC50 determination, Table 122
  inhibition at 10 µM: 75%
[2]; human, Relative Inhibition, 30.00 μM nominal, sumatriptan, IC50 determination, Table 122
  inhibition at 30 μM: 86%
[2]; human, Relative inhibition, 3.00 μM nominal, sumatriptan, Table 121
  inhibition at 3 μM: 49%
[2]; human, Relative inhibition, 30.00 μM nominal, sumatriptan, Table 121
  inhibition at 30 μM: 85%
